Measurements as given in ChEMBL document CHEMBL1156694, “In silico screening of HIV-1 non-nucleoside reverse transcriptase and protease inhibitors” (Eur J Med Chem, 2008).

Key:
[1] = Inhibition of HIV reverse transcriptase; design: species or system Human immunodeficiency virus
Protease = Protease (Human immunodeficiency virus 1, UniProt Q9YQ12); assay: Inhibition of HIV1 protease
[2] = Inhibition of HIV protease; design: species or system Human immunodeficiency virus

Protease, sequence (Q9YQ12 whole entry): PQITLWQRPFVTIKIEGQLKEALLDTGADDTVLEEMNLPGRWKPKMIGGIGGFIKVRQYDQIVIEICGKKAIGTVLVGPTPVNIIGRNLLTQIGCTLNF

Structure (SMILES) | IC50 [1] [nM] | other results
Cc1cc(C)c(-n2nnnc2SCC(=O)Nc2ccccc2Cl)c(C)c1 | 5 | 
CCOC(=O)Cc1nnc(NC(=O)[C@@H](CC)Sc2nnnn2-c2ccccc2)s1 | 50 | 
C=CCn1c(CSc2nc3ccccc3s2)nnc1SCC(=O)NCc1cccnc1 | < 100000 | 
Cc1c(O)cccc1C(=O)N[C@@H](Cc1ccccc1)[C@H](O)CN(CC(C)C)S(=O)(=O)c1ccc2ncsc2c1 |  | IC50 (Protease): < 10 nM
CC(C)(C)OC(=O)N[C@@H](Cc1ccccc1)[C@@H](O)[C@@]1(Cc2ccccc2)NC=C([C@H]2c3ccccc3C[C@@H]2O)C1=O |  | IC50 [2]: 12 nM
CC(C)n1nc(COC(N)=O)c(Cc2ccncc2)c1Sc1cc(Cl)cc(Br)c1 | 32 | 
